Laboratory results published in patent publication US20230303577A1, “TEMOZOLOMIDE ANALOGS AND METHODS OF USE” (St. John's Cancer Institute, priority 2020, published 2023).
Where two headings read alike, the source gives them in different places.

Assays:
[1] = tested on: U87; assay: cells; details: Homo sapiens, U-87 MG, 72 h
Experimental: (§1) The effect of selected compounds on glioma cells viability was determined. The cells were plated at 2000 cells/well in 96 well plates. The day after, cells were treated with various concentrations of temozolomide or VMY-TP analogs.
(§2) Activity of TP-RGD was assessed in glioma cell cultures, as described in Example 11.

[2] = tested on: U251; assay: cells; details: Homo sapiens, U-251, 72 h
Experimental: as §1, §2

[3] = tested on: T98G; assay: cells; details: Homo sapiens, 72 h
Experimental: as §1, §2

[4] = BBB permeability, cassette intravenous dosing; type: in vivo, male CD-1 mice; details: cassette IV 5 mg/kg; for % Brain / % Plasma: 5 min; for concentration at 5 min / Kp at 5 min: male, CD-1, mouse; for concentration at 5 min: 10% DMSO in PBS; for Kp at 5 min: brain/plasma
Experimental: BBB permeability of the compounds was tested in male CD-1@IGS mice using cassette intravenous dosing (Table 7 and FIGS. 6A and 6B). There were three animals in each group, given a dose of 5 mg/kg formulated in 10% DMSO in PBS (v/v) for 5 minutes. The endpoint was quantifying the parent compound using LC-MS/MS. Plasma samples (50 μl) were immediately mixed with 25 μl of H3PO4 (8.5%). Then 225 μl of internal standard (IS; 400 ng/ml meldonium in methanol) was added. After mixing by pipetting and centrifuging for 4 min at 6000 rpm, 2 μl of each supernatant was injected into LC-MS/MS system. Brain samples (100 mg±1 mg) were immediately mixed with 100 μl H3PO4 (25%) and zirconium oxide beads (115 mg±5 mg). Then 400 μl of IS solution was added and samples were disperse using a bullet blender homogenizer for 30 seconds at speed 8. The samples were centrifuged for 4 min at 14,000 rpm and 2 μl of each supernatant was injected into LC-MS/MS system.

[5] = tested on: P-gp; assay: Bidirectional Caco-2 permeability / P-gp efflux assay; type: in vitro ADME; details: human; for Papp A→B: read-out: Papp (AB) p-gp Inhibitor (−); for Papp B→A: read-out: Papp (BA) p-gp Inhibitor (−)
Experimental: Permeability of the compounds was evaluated in the bidirectional Caco-2 assay including identification of P-glycoprotein substrate (Pgp-mediated transport). Verapamil was used as a p-gp inhibitor. The apparent permeability (Papp) was calculated using the following equation:
Papp=VA/Area×Time×[drug]acc/[drug]initial,d
Permeability of the compounds was evaluated in the bidirectional Caco-2 assay as described in Example 11 (Table 15).

[6] = tested on: U251 Parent (Sensitive); assay: AlamarBlue cell viability, U251 parent (TMZ sensitive); type: cell-based; details: Homo sapiens, U-251; 72 hours
Experimental: (§3) Cells were seeded in 96-well plates. The day after, cells were treated with various concentrations of temozolomide or TP3. Cell viability was measured by AlamarBlue™ cell viability reagent after 72 hours, considering the control level of cells to be 100%.

[7] = tested on: GBM8; assay: AlamarBlue cell viability, GBM8 patient-derived cell line; type: cell-based; details: 72 h, read-out: IC50, 72 h
Experimental: as §1

[8] = tested on: T98G cells; assay: Cell Titer Glo viability of T98G cells with or without O6-BG pretreatment; type: cell-based; details: Homo sapiens
Experimental: T98G cells, which express MGMT, were treated with TMZ or test compounds with or without 3, 6, or 24 hours of pretreatment with 100 μM of O^6-benzylguanine (O^6-BG; a pseudo-substrate of MGMT that quenches the cellular store of enzyme). T98G cell lysates were probed with anti-MGMT antibody and then with anti-a tubulin (FIG. 4). In a separate experiment, TMZ or test compounds were added to T98G cells with or without 5-6 hours of pretreatment with 100 μM O^6-BG. Cell viability was measured using the Cell Titer Glo assay after 3 days of incubation and IC50 values were determined (Table 3).

[9] = tested on: U87MG Parent (Sensitive); assay: AlamarBlue cell viability, U87MG parent (TMZ sensitive); type: cell-based; details: Homo sapiens, U-87 MG; 72 hours
Experimental: as §3

[10] = tested on: U251 Resistant; assay: AlamarBlue cell viability, U251 TMZ resistant; type: cell-based; details: Homo sapiens, U-251; 72 hours
Experimental: as §3

[11] = Aqueous chemical stability (HPLC-MS); type: physicochemical
Experimental: Detection of products of non-enzymatic cleavage (AIC-TMZ, AIC-TP3, AIC-TP5, and AIC-TP9) was performed (Table 4; FIGS. 5A-5D).

[12] = Metabolic stability in mouse liver microsomes; type: in vitro ADME; details: for microsomal CLint: mouse, liver microsomes
Experimental: Metabolic stability of the compounds was also determined in mouse liver microsomes at five time points over 60 minutes, using HPLC-MS. Liver microsomes, as vesicles of the hepatocyte endoplasmic reticulum, contain membrane phase I enzymes namely CYPs, flavine-containing monooxygenases (FMO), esterases, amidases, and epoxide hydrolases, and also the phase II enzymes such as UGTs. For the catalytic activity of both phase I and II enzymes, addition of exogenous cofactors such as NADPH for CYPs and FMO, and UDPGA/alamethicin for UGTs is necessary.

[13] = tested on: U87MG Resistant; assay: AlamarBlue cell viability, U87MG TMZ resistant; type: cell-based; details: Homo sapiens, U-87 MG; 72 hours
Experimental: as §3

[14] = Caco-2, without verapamil, read-out: Efflux Ratio BA/AB p-gp Inhibitor (−)
[15] = read-out: Intrinsic clearance (Clint)

| Structure (SMILES) | % Brain [4] [%] | % Plasma [4] [%] | concentration at 5 min ([4]; brain, read-out: Brain Conc.) [ng/g] | Kp at 5 min [4] | concentration at 5 min ([4]; plasma, read-out: Plasma Conc) [ng/mL] | efflux ratio [5, 14] | Papp A→B ([5]; Caco-2, without verapamil) [×10⁻⁶ cm/s] | Papp B→A ([5]; Caco-2, without verapamil) [×10⁻⁶ cm/s] | IC50 [6] [µM] | IC50 [9] [µM] | IC50 [10] [µM] | half-life at 1 μM ([11]; 0.1 M phosphate buffer pH 8.0) [min] | half-life at 1 μM ([11]; PBS pH 7.4) [min] | microsomal CLint [12, 15] [µL/min/mg] | % remaining (1 h) With co-factors [12] [%] | % remaining (1 h) Without co-factors [12] [%] | IC50 [13] [µM] | further results |
| --- | --- | --- | --- | --- | --- | --- | --- | --- | --- | --- | --- | --- | --- | --- | --- | --- | --- | --- |
| Cn1nnc2c(C(N)=O)ncn2c1=O [TMZ, temozolomide] | 7 | 93 | 1290 | 0.23 | 5540 | 1 | 20.2 | 21 | 70 | 310 | 180 | 31 | 59 | 15 | 65 | 72 | > 1000 | IC50 ([1]; read-out: IC50, 72 h, U87, MGMT −, Table 2): 208 µM; IC50 ([1]; read-out: IC50, 72 h, U87MG, MGMT −, Table 14): 440 µM; IC50 ([2]; read-out: IC50, 72 h, U251, MGMT −, Table 2): 898 µM; IC50 ([2]; read-out: IC50, 72 h, U251, MGMT −, Table 14): 383 µM; IC50 ([3]; read-out: IC50, 72 h, T98G, MGMT +++, Table 14): > 600 µM; IC50 ([3]; read-out: IC50, 72 h, T98G, MGMT +, Table 2): 1140 µM; efflux ratio ([5]; Caco-2, Caco-2 permeability, P-gp efflux ratio, Table 15, read-out: Efflux Ratio): 1.04; IC50 ([7]; GBM8, MGMT −, Table 2): 45 µM; IC50 ([8]; 5-6 h pretreatment with 100 μM O6-BG, 3 days, read-out: IC50 With O^6-BG pretreatment): > 1000 µM; IC50 ([8]; 3 days, read-out: IC50 Without O^6-BG pretreatment): > 1000 µM; Clearance Classification (Low <8.6; High >48) [12]: Moderate |
| CCCCCCNC(=O)c1ncn2c(=O)n(C)nnc12 [TP3, N-hexyl-3-methyl-4-oxo-3,4-dihydroimidazo[5,1-d][1,2,3,5]tetrazine-8-carboxamide] | 20 | 80 | 2080 | 0.71 | 2920 | 0.6 | 30.7 | 17 | 71 | 250 | 63 | 39 | 62 | 358 | 0 | 80 | 280 | IC50 ([1]; read-out: IC50, 72 h): 399 µM; IC50 ([2]; read-out: IC50, 72 h): 397 µM; IC50 ([3]; read-out: IC50, 72 h): 1260 µM; IC50 [7]: 2 µM; IC50 ([8]; read-out: IC50 With O^6-BG pretreatment): 675 µM; IC50 ([8]; read-out: IC50 Without O^6-BG pretreatment): 1050 µM; half-life at 1 μM ([11]; 0.1 M phosphate buffer pH 7.0): 119 min; microsomal CLint ([12]; read-out: Clearance Classification (Low <8.6; High >48)): > 48 µL/min/mg |
